Results reported in patent publication US20240010987A1, “IN VITRO LIVER DISEASE MODEL USING TRIPLE CO-CULTURE AND PREPARATION METHOD THEREOF” (FUTURE MEDICINE CO., LTD., priority 2020, published 2024).

Experiments:
[1] = test system: HuH-7:LX-2:ImKC triple co-culture; test: Marker changes in triple co-culture in vitro liver disease model (steatosis, inflammation, fibrosis) after drug treatment; format: cell-based, human (HuH-7, mouse (ImKC); conditions: hepatic steatosis (FFA), inflammation (FFA+LPS) or fibrosis (FFA+TGF-β1) induced; FIGS. 5 to 14
Procedure: After the cells were fixed for 1 hour for direct co-culture, a 0.4 μm pore size cell culture insert (Corning™) was positioned on top of a direct co-culture dish for indirect co-culture of the corresponding cells with an immortalized mouse Kupffer cell line (ImKC). The cell suspensions of the immortalized mouse Kupffer cell line (ImKC) were added to the positioned cell culture insert (Corning™) such that the number of cells per area was 15,000 cells/cm^2, and the cells were cultured in a CO2 incubator (Thermo Scientific™) under 37° C. and 5% CO2 conditions for 24 hours (FIG. 1).
The cell culture dishes for each experimental group shown in the following Table 3, which was cultured for 24 hours in a CO2 incubator (Thermo Scientific™) under 37° C. and 5% CO2 conditions at 24 hours before FFA treatment, were taken out, the cell culture medium was carefully discarded, and a co-culture medium including 1,000 μM FFA (oleic:palmitic molar ratio 2:1) was added thereto. After FFA treatment, the cell culture dishes were incubated in a CO2 incubator (Thermo Scientific™) under 37° C. and 5% CO2 conditions for 144 hours. The co-culture medium including FFA was replaced at 48 and 96 hours after FFA treatment (FIG. 4).
The cell culture dishes for each experimental group shown in Table 3, which was cultured in a CO2 incubator (Thermo Scientific™) under 37° C. and 5% CO2 conditions at 72 and 96 hours before LPS treatment, were taken out, the cell culture medium was carefully discarded, and a culture medium including 0.5 ng/ml LPS was added to 1,000 μM FFA (oleic:palmitic molar ratio 2:1). After LPS treatment, the cell culture dishes were incubated in a CO2 incubator (Thermo Scientific™) under 37° C. and 5% CO2 conditions for 48 and 72 hours. […]
The absorbance of each cell culture treated with FM101 and the control material was measured in the same manner as in Experimental Example 3-1.
The absorbance of each cell culture treated with FM101 and the control material was measured in the same manner as in Experimental Example 3-2. […]

A3 adenosine receptor = conditions: in vivo experiments, EXCLI J. 2020 Feb. 12; 19:187-200; cited from earlier work

Row | SMILES | responsiveness of markers in triple co-culture cells on drug treatment, compared to directly co-cultured cells [1] | modulation of A3 adenosine receptor as A3AR ligand (A3 adenosine receptor)
1 | CC(C)c1cc(Oc2c(Cl)cc(-n3nc(C#N)c(=O)[nH]c3=O)cc2Cl)n[nH]c1=O [MGL-3196, Resmetirom] | higher responsiveness and more concentration-dependent responsiveness | –
2 | OC1CSC(n2cnc3c(NCc4cccc(Cl)c4)nc(Cl)nc32)C1O (stereo not shown) [FM101] | higher responsiveness and more concentration-dependent responsiveness | modulates an A3 adenosine receptor
3 | CNC(=O)[C@H]1O[C@@H](n2cnc3c(NCc4cccc(I)c4)nc(Cl)nc32)[C@H](O)[C@@H]1O [CF102, Namodenoson] | higher responsiveness and more concentration-dependent responsiveness | –
